{"source": "paper PMC8486139", "about": "“A new phenothiazine derivate is active against Clostridioides difficile and shows low cytotoxicity” (PLoS ONE, 2021)", "key": {"Caco-2 cell monolayers [1]": {"tested_on": "Caco-2 cell monolayers", "experiment": "MTS/PMS cell proliferation (metabolic activity) assay", "format": "cell-based", "method": "The cell proliferation assay (MTS/PMS; [3-(4,5-dimethylthiazol-2-yl)-5-(3-carboxymethoxyphenyl)-2-(4-sulfophenyl)-2H-tetrazolium, inner salt; MTS] and an electron coupling reagent (phenazine methosulfate) PMS) assay was performed by incubating the Caco-2 cell monolayers with 400 μL of a PMS/MTS solution in the apical compartment and 500 μL supplemented HBSS in the basolateral chamber (according to manufacturer’s instructions) for 60 minutes at 37°C and circular rotation (50 rpm). After incubation, 2×100 μL samples were taken from each monolayer and the absorbance at 492 nm in a 96-well plate."}, "[2]": {"tested_on": "gastrointestinal microbiota", "conditions": "mice"}, "Caco-2 cell monolayers [3]": {"tested_on": "Caco-2 cell monolayers"}, "fecal bacterial count": {"tested_on": "fecal bacterial count", "experiment": "Four-day oral treatment: CFU per gram feces by 16S rRNA qPCR", "format": "in vivo", "conditions": "mice; for average CFU/g fecal sample after treatment: four days"}, "[4]": {"tested_on": "Methicillin resistant Staphylococcus aureus (MRSA)", "conditions": "cited from earlier work"}, "Caco-2 cell monolayers [5]": {"tested_on": "Caco-2 cell monolayers", "experiment": "LDH release assay", "format": "cell-based", "method": "For analysis of the LDH activity, the samples taken from the apical compartment after the exposure experiment were diluted 5-fold and analyzed in the LDH assay according to manufacturer’s instructions. Briefly, the assay consisted of mixing the diluted samples with different assay reagents followed by incubation at room temperature for 30 min and the absorbance at 492 nm as a measure for LDH activity. A lysate of Caco-2 monolayers (prepared by suspending Caco-2 cell monolayers in purified water) was included as a positive control for maximal response in the assay."}, "C. difficile ATCC 43255 [6]": {"tested_on": "C. difficile ATCC 43255", "experiment": "Minimum bactericidal concentration (MBC), plating from MIC wells", "conditions": "C. difficile ATCC 43255, ≥3 log reduction of inoculum", "protocol": "Minimum bactericidal concentration (MIC) values were defined as the lowest concentrations of test compounds causing ≥3 log reductions of the initial cell inocula (∼ 10^5 CFU/mL in the final assay). Briefly, 100 μl from each well of the MIC assay (after incubation) were plates on ChromID® plates. After incubation for 24 h, viable counts were enumerated on ChromID® plates. Both the MIC and MBC were conducted with three biological replicates."}, "C. difficile ATCC 43255 [7]": {"tested_on": "C. difficile ATCC 43255", "experiment": "Minimal inhibition concentration (MIC) in 96-well microtitre plates", "format": "cell-based, Clostridioides difficile", "conditions": "C. difficile ATCC 43255, 24 h anaerobic incubation", "description": "C. difficile ATCC 43255, previously isolated from an abdominal wound, was used to assess the anti-clostridioides activity of JBC 1847. The strain was stored in reinforced clostridial medium (Oxoid, Roskilde, Denmark) in 15% glycerol at -[…] until use and grown anaerobically on ChromID® C. difficile plates (bioMérieux, Ballerup, Denmark)."}, "MRSA": {"tested_on": "MRSA", "conditions": "cited from earlier work"}, "C. difficile": {"tested_on": "C. difficile", "conditions": "previously shown; cited from earlier work"}}, "note": "Read-outs that look alike come from different tables or passages of the source.", "data": [{"smiles": "CC(C)=CCCC(C)CC[N+](C)(C)CCCN1c2ccccc2Sc2ccccc21", "note": "(stereo not shown) [JBC 1847]", "values": [{"measurement": "MTS/PMS response vs buffer controls", "setting": "Caco-2 cell monolayers [1]; 29 μg/mL", "value": "not significantly reduced"}, {"measurement": "MTS/PMS response (metabolic activity) vs buffer control", "setting": "Caco-2 cell monolayers [1]; 58.1 μg/mL (100 μM)", "value": "statistically significant reduction"}, {"measurement": "tendency in Lactobacillus spp abundance", "setting": "[2]; especially small intestine (Fig 5)", "value": "concentration-depended increase"}, {"measurement": "consistency of the fecal material", "setting": "[2]; exposure trial", "value": "No changes"}, {"measurement": "effect on TEER", "setting": "Caco-2 cell monolayers [3]; concentrations up to seven times MIC", "value": "did not affect the TEER negatively"}, {"measurement": "cytotoxicity in Caco-2 cell-line assays", "setting": "Caco-2 cell monolayers [3]; concentrations up to seven times the minimal bactericidal concentration", "value": "indication of toxicity was not observed"}, {"measurement": "average CFU/g fecal sample after treatment", "setting": "fecal bacterial count; 20 mg/kg bw", "value": "4.4 ×10^9 CFU/g"}, {"measurement": "average CFU/g fecal sample after treatment", "setting": "fecal bacterial count; 100 mg/kg bw", "value": "6.8 × 10^9 CFU/g"}, {"measurement": "change in CFU/g fecal sample after treatment", "setting": "fecal bacterial count; p = 0.51", "value": "no significant changes"}, {"measurement": "MIC against MRSA compared to the mother compound, promazine", "setting": "[4]", "value": "lower the minimal inhibition concentration (MIC) remarkably"}, {"measurement": "LDH release compared to buffer control", "setting": "Caco-2 cell monolayers [5]; 29 μg/mL (50 μM)", "value": "significantly higher"}, {"measurement": "LDH release compared to buffer control", "setting": "Caco-2 cell monolayers [5]; 29 μg/mL (50 μM), listed as JBC1 8473", "value": "statistically significant increase"}, {"measurement": "LDH release compared to buffer control", "setting": "Caco-2 cell monolayers [5]; 58.1 μg/ml in Fig 3", "value": "significantly higher"}, {"measurement": "LDH release compared to buffer control", "setting": "Caco-2 cell monolayers [5]; 58.1 μg/ml in Fig 3, listed as JBC1 8473", "value": "statistically significant increase"}, {"measurement": "dose tolerated without any clinical signs of discomfort", "setting": "NMRI female mice; mice, oral", "value": "up to 100 mg/kg bw"}, {"measurement": "clinical score of discomfort", "setting": "NMRI female mice; mouse, in vivo, 25 mg/kg", "value": 1}, {"measurement": "clinical score of discomfort", "setting": "NMRI female mice; mouse, in vivo, 100 mg/kg", "value": 0}, {"measurement": "tolerance of two doses", "setting": "NMRI female mice; mouse, in vivo, po, 100 mg/kg", "value": "tolerated well"}, {"measurement": "MBC", "setting": "C. difficile ATCC 43255 [6]", "value": 4, "unit": "µg/mL"}, {"measurement": "MIC", "setting": "C. difficile ATCC 43255 [7]", "value": 4, "unit": "µg/mL"}, {"measurement": "bacterial load of MRSA in wound model", "setting": "MRSA", "value": "highly effective in decreasing the bacterial load"}]}, {"smiles": "CSc1ccc2c(c1)N(CCC1CCCCN1C)c1ccccc1S2", "note": "(stereo not shown) [Thioridazine]", "values": [{"measurement": "antimicrobial activity against C. difficile", "setting": "C. difficile", "value": "antimicrobial activity"}]}]}
